The NIST ThermoML archive (doi:10.1021/acs.jced.9b00362)
± gives the expanded uncertainty stated by the source.

Columns and labels:
[1] = Crystal; DSC
[2] = Molar enthalpy of transition or fusion; details: Crystal; DSC

For O=P(O)(O)c1ccccc1 [phenylphosphonic acid], the Triple point temperature [1] was 437.53 ± 0.93 K and the “Molar enthalpy of transition or fusion” value [2] was 23.9 ± 2.1 kJ/mol.
